Laboratory results: patent publication US11230526B1, “Cylcoalkenyl derivatives useful as agonists of the GPR120 and/or GPR40 receptors” (Janssen Pharmaceutica NV, priority 2018, dated 2022)

Target: T1, short form of the GPR120 receptor (Homo sapiens, UniProt Q5NUL3)
T1 construct: host or cells: PathHunter CHO-K1 GPR120S β-Arrestin Cell Line
Assay: Human GPR120 DiscoveRx PathHunter Beta-Arrestin assay, Procedure β-arrestin B
Format: cell-based
Details: not given

T1 sequence (Q5NUL3 whole entry): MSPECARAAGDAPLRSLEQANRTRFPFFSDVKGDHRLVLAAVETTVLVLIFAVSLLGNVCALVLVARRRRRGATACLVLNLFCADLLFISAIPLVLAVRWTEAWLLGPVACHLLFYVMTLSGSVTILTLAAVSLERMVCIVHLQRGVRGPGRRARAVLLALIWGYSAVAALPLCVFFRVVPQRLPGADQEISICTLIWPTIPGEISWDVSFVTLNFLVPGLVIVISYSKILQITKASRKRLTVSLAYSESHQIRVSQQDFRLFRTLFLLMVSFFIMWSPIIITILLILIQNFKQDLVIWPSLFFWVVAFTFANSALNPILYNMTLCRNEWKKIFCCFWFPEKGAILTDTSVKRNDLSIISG
T1 sequence (P32121 whole entry partner): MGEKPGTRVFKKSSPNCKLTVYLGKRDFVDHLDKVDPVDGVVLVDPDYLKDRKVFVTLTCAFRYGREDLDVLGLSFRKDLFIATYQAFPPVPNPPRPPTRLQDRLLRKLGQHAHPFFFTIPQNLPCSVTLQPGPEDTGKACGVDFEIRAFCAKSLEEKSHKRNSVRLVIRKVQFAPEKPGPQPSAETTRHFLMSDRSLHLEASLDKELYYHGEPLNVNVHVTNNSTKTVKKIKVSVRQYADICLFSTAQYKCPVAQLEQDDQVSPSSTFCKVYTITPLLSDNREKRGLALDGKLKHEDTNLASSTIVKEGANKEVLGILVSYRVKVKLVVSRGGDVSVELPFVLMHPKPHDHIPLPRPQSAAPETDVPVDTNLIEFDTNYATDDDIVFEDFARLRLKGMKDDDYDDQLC

Compound | EC50 [nM]
Cc1ccc(C2=C(COc3ccc(CCC(=O)O)c(F)c3F)CCCC2)cc1F [Compound 494, 3-[2,3-difluoro-4-[[2-(3-fluoro-4-methyl-phenyl)cyclohexen-1-yl]methoxy]phenyl]Propanoic Acid] | 401
Cc1c(CCC(=O)O)ccc(OCC2=C(c3nccs3)CCC2)c1C [Compound 79, 3-[2,3-dimethyl-4-[(2-thiazol-2-ylcyclopenten-1-yl)methoxy]phenyl]Propanoic Acid] | 596
O=C(O)CCc1c(F)c(F)c(OCC2=C(c3ccc(Cl)cc3)CCCC2)c(F)c1F [Compound 479, 3-[4-[[2-(4-chlorophenyl)cyclohexen-1-yl]methoxy]-2,3,5,6-tetrafluoro-phenyl]Propanoic Acid] | 682
Cc1ccc(C2=C(COc3ccc(CCC(=O)O)c(C)c3C)CCC2)cn1 [Compound 85, 3-(2,3-dimethyl-4-((2-(6-methylpyridin-3-yl)cyclopent-1-en-1-yl)methoxy)phenyl)Propanoic Acid] | 725
Cc1c(CCC(=O)O)ccc(OCC2=C(c3ccc(OC(F)(F)F)cc3)CCC2)c1C [Compound 20, 3-(2,3-dimethyl-4-((2-(4-(trifluoromethoxy)phenyl)cyclopent-1-en-1-yl)methoxy)phenyl)Propanoic Acid] | > 5000
Cc1ccc(C2=C(COc3ccc(CCC(=O)O)c(F)c3F)CCC2)c(C)c1 [Compound 72, 3-(4-((2-(2,4-dimethylphenyl)cyclopent-1-en-1-yl)methoxy)-2,3-difluorophenyl)Propanoic Acid] | 648
Cc1ccc(C2=C(COc3c(F)cc(CCC(=O)O)cc3F)CCC2)cc1C [Compound 84, 3-(4-((2-(3,4-dimethylphenyl)cyclopent-1-en-1-yl)methoxy)-3,5-difluorophenyl)Propanoic Acid] | 533
Cc1c(CCC(=O)O)ccc(OCC2=C(c3ccc(Cl)cc3)CCCC2)c1C [Compound 474, 3-[4-[[2-(4-chlorophenyl)cyclohexen-1-yl]methoxy]-2,3-dimethyl-phenyl]Propanoic Acid] | 1030
Cc1c(CCC(=O)O)ccc(OCC2=C(c3ccccc3)CCCC2)c1C [Compound 472, 3-[2,3-dimethyl-4-[(2-phenylcyclohexen-1-yl)methoxy]phenyl]Propanoic Acid] | 488
Cc1c(CCC(=O)O)ccc(OCC2=C(c3ccc(Cl)c(Cl)c3)CCC2)c1C [Compound 66, 3-[4-[[2-(3,4-dichlorophenyl)cyclopenten-1-yl]methoxy]-2,3-dimethyl-phenyl]Propanoic Acid] | 629
Cc1c(CCC(=O)O)ccc(OCC2=C(c3ccccn3)CCC2)c1C [Compound 147, 3-[2,3-dimethyl-4-[[2-(2-pyridyl)cyclopenten-1-yl]methoxy]phenyl]Propanoic Acid] | 923
Cc1ccccc1C1=C(COc2ccc(CCC(=O)O)c(C)c2C)CCC1 [Compound 132, 3-[2,3-dimethyl-4-[[2-(o-tolyl)cyclopenten-1-yl]methoxy]phenyl]Propanoic Acid] | 1800
O=C(O)CCc1c(F)c(F)c(OCC2=C(c3ccc(Cl)cc3)CCC2)c(F)c1F [Compound 122, 3-[4-[[2-(4-chlorophenyl)cyclopenten-1-yl]methoxy]-2,3,5,6-tetrafluoro-phenyl]Propanoic Acid] | 397

Now from value to compound:

EC50 [nM] | Compound
359 | O=C(O)CCc1cc(F)c(OCC2=C(c3ccc(Cl)cc3)CCC2)c(F)c1 [Compound 60, 3-[4-[[2-(4-chlorophenyl)cyclopenten-1-yl]methoxy]-3,5-difluoro-phenyl]Propanoic Acid]
337 | Cc1c(CCC(=O)O)ccc(OCC2=C(c3ccccc3)CCC2)c1C [Compound 23, 3-(2,3-dimethyl-4-((2-phenylcyclopent-1-en-1-yl)methoxy)phenyl)Propanoic Acid]
281 | Cc1c(CCC(=O)O)ccc(OCC2=C(c3ccccc3Cl)CCC2)c1C [Compound 76, 3-[4-[[2-(2-chlorophenyl)cyclopenten-1-yl]methoxy]-2,3-dimethyl-phenyl]Propanoic Acid]
275 | Cc1c(CCC(=O)O)ccc(OCC2=C(c3cccc(Cl)c3)CCC2)c1C [Compound 58, 3-[4-[[2-(3-chlorophenyl)cyclopenten-1-yl]methoxy]-2,3-dimethyl-phenyl]Propanoic Acid]
210 | O=C(O)CCc1cc(F)c(OCC2=C(c3ccc(Cl)cc3)CCCC2)c(F)c1 [Compound 510, 3-[4-[[2-(4-chlorophenyl)cyclohexen-1-yl]methoxy]-3,5-difluoro-phenyl]Propanoic Acid]
191 | O=C(O)CCc1ccc(OCC2=C(c3ccc(Cl)cc3)CCC(F)(F)C2)c(F)c1F [Compound 503, 3-[4-[[2-(4-chlorophenyl)-5,5-difluoro-cyclohexen-1-yl]methoxy]-2,3-difluoro-phenyl]Propanoic Acid]
164 | Cc1c(CCC(=O)O)ccc(OCC2=C(c3ccc(F)cc3)CCC2)c1C [Compound 4, 3-[4-[[2-(4-fluorophenyl)cyclopenten-1-yl]methoxy]-2,3-dimethyl-phenyl]Propanoic Acid]
155 | Cc1cc(CCC(=O)O)ccc1OCC1=C(c2ccc(Cl)cc2)CCCC1 [Compound 483, 3-[4-[[2-(4-chlorophenyl)cyclohexen-1-yl]methoxy]-3-methyl-phenyl]Propanoic Acid]
139 | Cc1ccc(C2=C(COc3ccc(CCC(=O)O)c(C)c3C)CCC2)cc1F [Compound 80, 3-(4-((2-(3-fluoro-4-methylphenyl)cyclopent-1-en-1-yl)methoxy)-2,3-dimethylphenyl)Propanoic Acid]
122 | Cc1c(CCC(=O)O)ccc(OCC2=C(c3ccc(Cl)cc3)CCC2)c1C [Compound 15, 3-(4-((2-(4-chlorophenyl)cyclopent-1-en-1-yl)methoxy)-2,3-dimethylphenyl)Propanoic Acid]
90 | O=C(O)CCc1ccc(OCC2=C(c3ccc(Cl)cc3)CCC2)c(F)c1 [Compound 149, 3-[4-[[2-(4-chlorophenyl)cyclopenten-1-yl]methoxy]-3-fluoro-phenyl]Propanoic Acid]
89 | CCc1ccc(C2=C(COc3ccc(CCC(=O)O)c(F)c3F)CCC2)cc1 [Compound 25, 3-(4-((2-(4-ethylphenyl)cyclopent-1-en-1-yl)methoxy)-2,3-difluorophenyl)Propanoic Acid]
77 | CCc1ccc(C2=C(COc3ccc(CCC(=O)O)c(C)c3C)CCC2)cc1 [Compound 27, 3-(4-((2-(4-ethylphenyl)cyclopent-1-en-1-yl)methoxy)-2,3-dimethylphenyl)Propanoic Acid]
75 | Cc1cc(CCC(=O)O)ccc1OCC1=C(c2ccc(Cl)cc2)CCC1 [Compound 62, 3-[4-[[2-(4-chlorophenyl)cyclopenten-1-yl]methoxy]-3-methyl-phenyl]Propanoic Acid]
73 | O=C(O)CCc1ccc(OCC2=C(c3ccc(Cl)cc3)CCC2)c(F)c1F [Compound 70, 3-[4-[[2-(4-chlorophenyl)cyclopenten-1-yl]methoxy]-2,3-difluoro-phenyl]Propanoic Acid]
56 | Cc1cc(CCC(=O)O)ccc1OCC1=C(c2ccc(Cl)c(F)c2)CCC1 [Compound 159, 3-(4-((2-(4-chloro-3-fluorophenyl)cyclopent-1-en-1-yl)methoxy)-3-methylphenyl)Propanoic Acid]

Tested on: C57B16 mice on a high fat diet
Assay: GPR120 DIO mice OGTT screening
Format: in vivo, mouse
Details: 3 mg/kg, DIO mice (60% HFD), glucose AUC −30 to 90 min, % change from vehicle
Description: GPR120 DIO Mice OGTT Screening
18-22 week old, C57B16 mice on a high fat diet (60% HFD) for 12-16 weeks (ave. body weight ˜ 37-41 g) were fasted for 6 hr, with removal of food occurring at 7 am on the morning of the study. The animals were sorted into treatment groups the day before the study by body weight. Animals outside the bounds of ˜30-50 g were left out of the study. The animals had been handled and shammed a total of 5-8 days (1-3 days immediately prior to the study). Glucose (in 1 mL syringes) was drawn up the morning of the study. Test compounds were kept spinning and were only drawn into 1 ml syringes prior to study commencement. Animals were bled via tail snip to determine basal glucose levels prior to dosing of treatments. An Ascensia BREEZE Blood Glucose Monitoring System by Bayer was used for determining glucose levels.
Animals were moved into the testing room at ˜9-11 am, to yield them time to acclimate. The bleeds and dosing started at approximately 1 pm in 30-second intervals per animal. All groups were dosed 30 minutes prior to glucose administration at a dose volume of 10 ml/kg (the dose volume was calculated separately for each individual animal). Test compounds were administered at one or more of the following dosages: 0.1 mg/kg, 0.3 mg/kg, 1 mg/kg, 3 mg/kg and 10 mg/kg.
Thirty minutes after the first dose (with test compound) animals were bled again for a second baseline, or T=0, and immediately dosed with glucose (20% solution, TEKNOVA, 250 ml sterile bottle w/catalogue number G0525) via a PO injection. The exact dose volume for glucose was also calculated separately for each individual animal.
Blood glucose was measured at 15, 30, 45, 60, and 90 minutes post-glucose administration via the snipped tail. If an animal reached a value of “HI”, the upper limit of the glucometer (600 mg/dl) was substituted as the blood glucose value and the study was analyzed as normal with no exclusions. If 50% or more of any treatment group reaches a “HI” value at least once, the study was considered invalid and repeated. Glucose values were typed into an EXCEL spreadsheet where they were used to calculate glucose AUC and delta AUC post-compound and post-glucose. The glucose excursion curves and the different versions of the AUC's were graphed in GraphPad Prism 5.
Note: All statistics completed in this study were completed using the statistical software package GraphPad Prism 5. Standard procedures for analyzing data sets from screening GPR120 compounds in DIO mouse OGTT's were as listed here below. In addition to the statistics that were run using GraphPad Prism 5, Microsoft Excel was used to calculate the percent changes in AUC from vehicle groups as detailed below.
Change from −30 to 0 Baseline Glucose, Raw Glucose AUC −30 to 90 min, Delta Glucose AUC −30 to 90 min, Raw Glucose AUC 0 to 90 min, Delta Glucose AUC 0 to 90 min were analyzed using Column Statistics Analysis, with mean values used to calculate % change from the vehicle mean group, as well as mean, SEM and/or % change from vehicle, where appropriate, and using One-Way ANOVA w/a Tukey Post-Test (Comparing All Pairs of Columns) with each treatment group examined to see if it was statistically significant compared to vehicle (*=P<0.05, **=P<0.01, ***=P<0.001).

Compound | DIO Lowering (−30 to 90) [%]
Cc1ccc(C2=C(COc3ccc(CCC(=O)O)c(C)c3C)CCC2)cc1F [Compound 80, 3-(4-((2-(3-fluoro-4-methylphenyl)cyclopent-1-en-1-yl)methoxy)-2,3-dimethylphenyl)Propanoic Acid] | −33

Same assay, conditions: 10 mg/kg, DIO mice (60% HFD), glucose AUC −30 to 90 min, % change from vehicle

Compound | DIO Lowering (−30 to 90) [%]
Cc1ccc(C2=C(COc3ccc(CCC(=O)O)c(C)c3C)CCC2)cc1F [Compound 80, 3-(4-((2-(3-fluoro-4-methylphenyl)cyclopent-1-en-1-yl)methoxy)-2,3-dimethylphenyl)Propanoic Acid] | −60
Cc1ccc(C2=C(COc3ccc(CCC(=O)O)c(F)c3F)CCCC2)cc1F [Compound 494, 3-[2,3-difluoro-4-[[2-(3-fluoro-4-methyl-phenyl)cyclohexen-1-yl]methoxy]phenyl]Propanoic Acid] | −28
Cc1c(CCC(=O)O)ccc(OCC2=C(c3ccc(Cl)cc3)CC(F)(F)C2)c1C [Compound 137, 3-[4-[[2-(4-chlorophenyl)-4,4-difluoro-cyclopenten-1-yl]methoxy]-2,3-dimethyl-phenyl]Propanoic Acid] | −56
